Source: the supplement of paper PMC10307832

Assays:
Experiment in all cases: relative viability (nuclei count vs DMSO), 5 days (fraction); higher = more cells survive
[1] = compound: CC1(C)CNc2cc(NC(=O)c3cccnc3NCc3ccncc3)ccc21 [Motesanib] + NC(=O)Nc1cc(-c2cccc(F)c2)sc1C(=O)N[C@H]1CCCNC1 [AZD7762] (partner 0.2 µM)
Outline: (§1)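 Values are medians from duplicate plates. Each reflects relative viability, defined as the nuclei count of treated wells over that of vehicle wells. Lung cancer cell lines in 1536-well plates were pin-tool dosed one day after seeding with one drug alone or with a fixed anchor-drug dose plus five library-drug doses (not always all listed) in √10 steps, then fixed, stained and imaged at 4× after 5 days.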

[2] = compound: C[C@@]1(C(=O)Nc2ccc(F)nc2)CCCN1c1nc(Nc2cc(C3CC3)n[nH]2)c2cccn2n1 + C[C@@H](Oc1cc(-c2cnn(C3CCNCC3)c2)cnc1N)c1c(Cl)ccc(F)c1Cl [Crizotinib] (partner 1 µM)
Outline: as §1

[3] = compound: C[C@@]1(C(=O)Nc2ccc(F)nc2)CCCN1c1nc(Nc2cc(C3CC3)n[nH]2)c2cccn2n1 + COc1cc2c(Oc3ccc(NC(=O)C4(C(=O)Nc5ccc(F)cc5)CC4)cc3F)ccnc2cc1OCCCN1CCOCC1 [Foretinib] (partner 0.25 µM)
Outline: as §1

[4] = compound: CC1(C)CNc2cc(NC(=O)c3cccnc3NCc3ccncc3)ccc21 [Motesanib] + O=C(c1cc(Cc2n[nH]c(=O)c3ccccc23)ccc1F)N1CCN(C(=O)C2CC2)CC1 [Olaparib] (partner 8 µM)
Outline: as §1

Row | Cell Line | relative viability ([1]; first compound 0.01 µM) | relative viability ([1]; first compound 0.03162 µM) | relative viability ([1]; first compound 0.1 µM) | relative viability ([1]; first compound 0.3162 µM) | relative viability ([1]; first compound 1 µM) | relative viability ([2]; first compound 0.04 µM) | relative viability ([2]; first compound 0.1265 µM) | relative viability ([2]; first compound 0.4 µM) | relative viability ([2]; first compound 1.265 µM) | relative viability ([3]; first compound 0.04 µM) | relative viability ([3]; first compound 0.1265 µM) | relative viability ([3]; first compound 0.4 µM) | relative viability ([3]; first compound 1.265 µM) | relative viability ([4]; first compound 0.01 µM) | relative viability ([4]; first compound 0.03162 µM) | relative viability ([4]; first compound 0.1 µM) | relative viability ([4]; first compound 0.3162 µM) | relative viability ([4]; first compound 1 µM)
1 | NCI-H1666 | 0.809 | 0.927 | 1.02 | 0.898 | 0.909 | 0.811 | 0.845 | 0.708 | 0.574 | 0.925 | 0.909 | 0.778 | 0.784 | 0.743 | 0.761 | 0.776 | 0.851 | 0.705
2 | NCI-H1703 | – | 0.127 | 0.139 | 0.13 | 0.13 | 0.586 | 0.535 | 0.792 | – | 0.294 | 0.303 | 0.309 | 0.273 | 0.442 | 0.305 | 0.318 | 0.223 | 0.232
3 | NCI-H1734 | 0.548 | 0.648 | 0.584 | 0.499 | 0.457 | 0.554 | 0.51 | 0.358 | 0.509 | 0.603 | 0.494 | 0.336 | 0.408 | 0.54 | 0.686 | 0.72 | 0.636 | 0.565
4 | NCI-H1755 | 0.407 | 0.45 | 0.467 | 0.425 | 0.383 | 0.919 | 0.793 | 0.756 | 0.836 | 0.914 | 0.729 | 0.85 | 0.89 | 0.795 | 0.877 | 0.774 | 0.923 | 0.9
5 | NCI-H1915 | 0.676 | 0.66 | 0.747 | 0.711 | 0.755 | 0.932 | 0.874 | 0.898 | 0.952 | 1.11 | 1.04 | 1.04 | 1.18 | 0.246 | 0.262 | 0.258 | 0.277 | 0.286
6 | NCI-H1944 | 0.425 | 0.476 | 0.532 | 0.541 | 0.472 | 0.981 | 1.03 | 0.875 | 1.17 | 0.764 | 0.676 | 0.496 | 0.649 | 0.444 | 0.4 | 0.432 | 0.46 | 0.428
7 | NCI-H1975 | 0.656 | 0.686 | 0.752 | 0.821 | 0.709 | 0.962 | 0.929 | 0.899 | 0.486 | 0.861 | 0.962 | 0.88 | 0.716 | 0.756 | 0.667 | 0.761 | 0.682 | 0.781
8 | NCI-H1993 | 0.788 | 0.725 | 0.595 | 0.676 | 0.863 | 0.663 | – | 0.64 | 0.633 | 0.659 | 0.67 | 0.532 | 0.555 | 1.03 | 0.94 | 1.03 | 1.06 | 1.08
9 | NCI-H2085 | 1.02 | 0.933 | 1.14 | 0.953 | 0.987 | 0.913 | 0.979 | 0.844 | 0.635 | 0.989 | 0.736 | 0.73 | 0.675 | 0.756 | 0.777 | 0.764 | 0.745 | 0.843
